Data on two compounds can be found in US10828305B2 (SHANGHAI PHARMACEUTICALS HOLDING CO., LTD., priority 2016, dated 2020).

pIC50: −log10 of the molar value. Where two headings read alike, the source gives them in different places.

In one data set the target is T1, CYP2C8 (Homo sapiens, UniProt P10632).
T1 construct: from tissue; host or cells: human liver microsomes
T1 sequence (P10632 1-490): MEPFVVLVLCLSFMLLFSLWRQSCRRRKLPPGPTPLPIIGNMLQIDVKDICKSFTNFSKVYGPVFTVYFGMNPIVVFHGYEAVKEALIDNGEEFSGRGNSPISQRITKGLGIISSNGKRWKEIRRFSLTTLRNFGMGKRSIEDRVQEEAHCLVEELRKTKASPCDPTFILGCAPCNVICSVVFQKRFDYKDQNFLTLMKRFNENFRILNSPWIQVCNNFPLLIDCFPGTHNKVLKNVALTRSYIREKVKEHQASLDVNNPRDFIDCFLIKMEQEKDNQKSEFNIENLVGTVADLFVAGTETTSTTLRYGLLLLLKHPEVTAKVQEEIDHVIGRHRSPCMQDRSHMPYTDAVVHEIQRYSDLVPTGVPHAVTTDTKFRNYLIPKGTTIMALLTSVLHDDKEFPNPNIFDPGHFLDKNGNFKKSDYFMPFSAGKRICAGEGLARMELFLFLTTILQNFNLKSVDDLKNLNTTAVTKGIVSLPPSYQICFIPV
Put plainly: Direct inhibition of CYP2C8, human liver microsome. In kind it is in vitro ADME. The following applies: probe paclitaxel, read-out: IC50 2C8 (Paclitaxel). As for the experimental part:
(§1) Research on Direct Inhibition of CYP2B6 and CYP2C8
(§2) 100 μL human liver microsome (with final concentration of 0.2 mg/mL) was used for direct inhibition under warm incubation. The positive control system contained NADPH (with final concentration of 1 mmol/L), a mixture of positive inhibitors (ketoconazole 0.05 to 50 μmol/L, montelukast sodium 0.001 to 1 μmol/L), and a substrate mixture (with final concentration of amfepramone 50 μmol/L and paclitaxel 5 μmol/L), and the reaction was terminated after incubation for 20 min. The positive inhibitor was replaced with 0.1 to 100 μmol/L test compound in the test compound group. The reaction was terminated with acetonitrile containing […] internal standard tinidazole (1:3), vortexed for 10 min, centrifuged at 6000×g for 10 min, and 50 μL supernatant was taken and put into a 96-well plate for injection.
(§3) In this experiment, IC50 of inhibition of the compound on the enzyme was calculated by measuring relative production of the probe metabolite. The activity of CYP3A4 was simultaneously characterized by two probes of midazolam and testosterone.

A further data set concerns the target T2, CYP2B6 (Homo sapiens, UniProt P20813).
T2 construct: from tissue; host or cells: human liver microsomes
T2 sequence (P20813 1-491): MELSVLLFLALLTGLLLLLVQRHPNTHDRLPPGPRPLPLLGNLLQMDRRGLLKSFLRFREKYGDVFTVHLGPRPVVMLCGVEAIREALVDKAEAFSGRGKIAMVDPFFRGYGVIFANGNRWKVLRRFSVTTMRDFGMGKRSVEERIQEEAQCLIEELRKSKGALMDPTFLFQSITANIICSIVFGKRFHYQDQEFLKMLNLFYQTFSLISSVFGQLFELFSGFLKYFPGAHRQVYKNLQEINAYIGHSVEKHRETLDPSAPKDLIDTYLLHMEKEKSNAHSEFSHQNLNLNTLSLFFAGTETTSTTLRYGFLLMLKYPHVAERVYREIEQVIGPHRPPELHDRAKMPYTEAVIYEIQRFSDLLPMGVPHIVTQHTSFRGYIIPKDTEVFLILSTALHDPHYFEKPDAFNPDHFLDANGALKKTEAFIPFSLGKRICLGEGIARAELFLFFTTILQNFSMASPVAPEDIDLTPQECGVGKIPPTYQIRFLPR
Description: Direct inhibition of CYP2B6, human liver microsome. In kind it is in vitro ADME. The note with it: probe bupropion, read-out: IC50 2B6 (Bupropion). As for the experimental part:
as §1, §2, §3
A general note: Liver microsomes are a subcellular fraction often used to study metabolism.

Another data set has as its target T3, CYP3A4 (Homo sapiens, UniProt P08684).
T3 construct: from tissue; host or cells: human liver microsomes
Description: Direct inhibition of CYP3A4, human liver microsome. In kind it is in vitro ADME. As for the experimental part: (§4) Research on Direct Inhibition of CYP3A4, CYP2D6, CYP2C9, CYP2C19, CYP1A2
(§5) 100 μL human liver microsome (with final concentration of 0.2 mg/mL) was used for direct inhibition under warm incubation, the positive control system contained NADPH (with final concentration of 1 mmol/L), a mixture of positive inhibitors (ketoconazole 0.01 to 10 μmol/L, quinidine 0.01 to 10 μmol/L, sulfaphenazole 0.1 to 100 μmol/L, tranylcypromine 1 to 1000 μmot/L, α-naphthoflavone 0.01 to 10 μmol/L), and a substrate mixture (with final concentration of midazolam 10 μmol/L, testosterone 100 μmol/L, dextromethorphan 10 μmol/L, diclofenac 20 μmol/L, S-mephenytoin 50 μmol/L, phenacetin 100 μmol/L), and the reaction was terminated after incubation for 20 min. The positive inhibitor was replaced with 0.1 to 100 μmol/L test compound in the test compound group. The reaction was terminated with acetonitrile containing 0.11 μg/mL internal standard tinidazole (1:3), vortexed for 10 min, centrifuged at 6000×g for 10 min, 50 μL supernatant was taken and put into a 96-well plate for injection.
as §3

Data set [1] can be described thus: In vivo pharmacokinetics study in mice. The following applies: male, ICR, mouse, plasma, po, iv 3 mg/kg, intragastric 10 mg/kg, read-out: Absolute bioavailability F. As to the method:
In Vivo Pharmacokinetics Study in Rats and Mice
24 male ICR mices, with weight of 18 to 22 g. The mice were fasted for 12 to 16 hours before the experiment, without restricting drinking water. 24 mice were divided into 2 groups, 12 mice for each group. The first group was intravenously administrated with test compound (10 mL/kg, 0.3 mg/mL) at a dose of 3 mg/kg, 0.4 mL blood sample was taken from venous plexus of the fundus of the eye into a pre-heparinized centrifuge tube (sodium heparin solution 10 μL/tube) before administration and 2, 5, 15, 30, 60, 90, 120, 240, 360, 480, 720, 1440 min after administration, respectively. The second group was dosed with compound (20 mL/kg, 0.5 mg/mL) by intragastric administration at a dose of 10 mg/kg, 0.4 mL blood sample was taken from venous plexus of the fundus of the eye into a pre-heparinized centrifuge tube (sodium heparin solution 10 μL/tube) before administration and 5, 15, 30, 60, 90, 120, 240, 360, 480, 720, and 1440 min after administration, respectively. 2 to 3 time points were taken for each mouse. […]
Taking 50 μL plasma sample of rat or mouse, adding […] acetonitrile containing internal standard (propranolol, 2.5 ng/ml) to precipitate protein. Vortexing for 10 min, centrifuging at 6000 g for 10 min, the supernatant was taken and diluted with mobile phase in a 96-well plate, the drug concentration in plasma was measured by UPLC/MS-MS. […]

For the next data set, the target named is T4, CYP2C9 (Homo sapiens, UniProt P11712).
T4 construct: from tissue; host or cells: human liver microsomes
T4 sequence (P11712 whole entry): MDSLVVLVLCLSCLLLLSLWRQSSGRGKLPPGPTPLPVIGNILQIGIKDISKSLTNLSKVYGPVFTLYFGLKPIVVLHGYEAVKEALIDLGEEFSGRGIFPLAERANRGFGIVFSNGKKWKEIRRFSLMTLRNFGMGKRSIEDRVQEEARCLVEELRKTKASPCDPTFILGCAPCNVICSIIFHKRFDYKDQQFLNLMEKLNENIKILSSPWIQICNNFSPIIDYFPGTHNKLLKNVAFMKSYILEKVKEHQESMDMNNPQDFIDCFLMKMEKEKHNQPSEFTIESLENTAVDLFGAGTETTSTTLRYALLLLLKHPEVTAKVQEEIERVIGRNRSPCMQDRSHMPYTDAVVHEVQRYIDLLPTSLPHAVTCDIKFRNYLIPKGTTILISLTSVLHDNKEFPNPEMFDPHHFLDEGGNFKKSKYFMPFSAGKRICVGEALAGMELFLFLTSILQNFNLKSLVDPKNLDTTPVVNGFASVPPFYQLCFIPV
Description: Direct inhibition of CYP2C9, human liver microsome. In kind it is in vitro ADME. The following applies: probe diclofenac, read-out: IC50 2C9 (Diclofenac). As for the experimental part:
as §4, §5, §3

[2] abbreviates: probe midazolam, read-out: IC50 3A4 (Midazolam).
Setting [3] is: probe testosterone, read-out: IC50 3A4 (testosterone).

T3 sequence (P08684 whole entry): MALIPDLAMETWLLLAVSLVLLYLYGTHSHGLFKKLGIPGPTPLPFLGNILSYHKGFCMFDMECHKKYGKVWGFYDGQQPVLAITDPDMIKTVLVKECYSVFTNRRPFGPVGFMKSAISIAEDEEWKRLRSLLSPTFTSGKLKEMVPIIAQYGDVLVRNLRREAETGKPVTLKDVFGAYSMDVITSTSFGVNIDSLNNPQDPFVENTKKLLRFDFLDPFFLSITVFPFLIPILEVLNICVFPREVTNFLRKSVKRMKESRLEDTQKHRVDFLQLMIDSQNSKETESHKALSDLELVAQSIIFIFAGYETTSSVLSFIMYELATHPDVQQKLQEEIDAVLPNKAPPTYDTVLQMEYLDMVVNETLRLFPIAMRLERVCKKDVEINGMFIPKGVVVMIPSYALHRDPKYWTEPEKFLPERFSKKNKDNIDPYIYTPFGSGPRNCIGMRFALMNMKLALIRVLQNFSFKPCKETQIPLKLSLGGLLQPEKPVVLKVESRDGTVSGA

For orientation: pIC50 means −log10 of the IC50, conventionally taken in molar units. The bioavailability is dose-corrected exposure relative to a reference, in per cent. Take `Cc1cc(Nc2ncnc3ccc(NC4=NC(C)(C)CO4)cc23)ccc1Oc1ccn2ncnc2c1` [ARRY-380, reference compound]: the pIC50 on CYP2C8 is 5.52; on CYP2B6, below 4.00; on CYP3A4 (setting [2]) it was 4.96; at CYP3A4 (setting [3]), 4.96; on CYP2C9, 4.89. The bioavailability in data set [1] is 61%.
For `Cc1cc(Nc2ncnc3ccc(NC4=NC(C)(C)CO4)cc23)ccc1Oc1cc2nncn2cn1` [Embodiment 4, N^4-(4-([1,2,4]triazolo[4,3-c]pyrimidin-7-yloxy)-3-methylphenyl)-N^6-(4,4-dimethyl-4,5-dihydrooxazol-2-yl)quinazoline-4,6-diamine], the negative-log IC50 (pIC50) at CYP2C8 is 4.82; at CYP2B6, below 4.00; at CYP3A4 (setting [2]), 4.60; on CYP3A4 (setting [3]), 4.68; at CYP2C9 it was 4.28. Moreover, the bioavailability in data set [1] was 96.2%.
